Patent publication US9469615B2, “Quinoxalines and AZA-quinoxalines as CRTH2 receptor modulators” (Merck Sharp & Dohme Corp., priority 2010, dated 2016)

target: T1, hCRTH2 (Homo sapiens, UniProt Q9Y5Y4); assay: Radioligand binding assay ([3H]PGD2 competition, HEK-hCRTH2 membranes); settings: [3H]PGD2 competition, Table B
T1 construct: expressed in transfected cells; host or cells: HEK (human embryonic kidney) cells expressing hCRTH2; membrane preparation
T1 sequence (Q9Y5Y4 1-395): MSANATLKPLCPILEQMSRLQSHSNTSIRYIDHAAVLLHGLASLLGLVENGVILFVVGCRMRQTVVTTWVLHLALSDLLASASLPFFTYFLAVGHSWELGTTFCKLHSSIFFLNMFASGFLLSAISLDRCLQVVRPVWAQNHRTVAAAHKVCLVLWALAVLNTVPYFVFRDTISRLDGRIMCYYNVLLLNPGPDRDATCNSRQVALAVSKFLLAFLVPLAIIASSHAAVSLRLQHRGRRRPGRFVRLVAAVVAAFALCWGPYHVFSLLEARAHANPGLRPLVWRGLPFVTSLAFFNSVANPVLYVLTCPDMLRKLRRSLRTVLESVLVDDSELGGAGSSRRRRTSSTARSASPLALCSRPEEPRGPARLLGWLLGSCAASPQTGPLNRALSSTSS
How it was run: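 Displacement of 3.0 nM [3H]PGD2 from human CRTH2 expressed in HEK membranes was measured at room temperature over 60 min. Unlabelled PGD2 at 10 μM gave non-specific binding.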

Ki [nM] | SMILES
2.1 to 20 | O=C(O)CCCCc1nc2cc(C(=O)N3CCC4(CC3)CNC(=O)c3ccccc34)ccc2nc1-c1ccc(Cl)cc1 [compound 267, 5-(3-(4-chlorophenyl)-7-(1-oxo-2,3-dihydro-1H-spiro[isoquinoline-4,4′-piperidin]-1′-ylcarbonyl)quinoxalin-2-yl)pentanoic acid]
2.1 to 20 | O=C(O)CCCCc1nc2cc(C(=O)NC3CCC(=O)Nc4ccccc43)ccc2nc1-c1ccc(Cl)cc1 (stereo not drawn) [compound 268, 5-(3-(4-chlorophenyl)-7-((2-oxo-2,3,4,5-tetrahydro-1H-benzo[b]azepin-5-yl)carbamoyl)quinoxalin-2-yl)pentanoic acid]
201 to 700 | O=C(O)Cc1cccc(CCCc2nc3cc(C(=O)N[C@@H]4CCCc5ccccc54)ccc3nc2-c2ccc(F)cc2)c1 [compound 269, (R)-2-(3-(3-(3-(4-fluorophenyl)-7-((1,2,3,4-tetrahydronaphthalen-1-yl)carbamoyl)quinoxalin-2-yl)propyl)phenyl)acetic acid]
201 to 700 | O=C(O)Cc1cccc(CCCc2nc3cc(C(=O)N[C@H]4CCCc5ccccc54)ccc3nc2-c2ccc(F)cc2)c1 [compound 270, (S)-2-(3-(3-(3-(4-fluorophenyl)-7-((1,2,3,4-tetrahydronaphthalen-1-yl)carbamoyl)quinoxalin-2-yl)propyl)phenyl)acetic acid]
201 to 700 | C[C@@H](NC(=O)c1ccc2nc(-c3ccc(F)cc3)c(CCCc3cccc(CC(=O)O)c3)nc2c1)c1ccc(F)cc1 [compound 271]
20.1 to 200 | O=C(O)Cc1cccc(CCCc2nc3cc(C(=O)N4CCN(c5ccccc5)CC4)ccc3nc2-c2ccc(F)cc2)c1 [compound 272, 2-(3-(3-(3-(4-fluorophenyl)-7-(4-phenylpiperazine-1-carbonyl)quinoxalin-2-yl)propyl)phenyl)acetic acid]
20.1 to 200 | O=C(O)Cc1cccc(CCCc2nc3cc(C(=O)N4CC(c5cccc(F)c5)C4)ccc3nc2-c2ccc(F)cc2)c1 [compound 273, 2-(3-(3-(3-(4-fluorophenyl)-7-(3-(3-fluorophenyl)azetidine-1-carbonyl)quinoxalin-2-yl)propyl)phenyl)acetic acid]
2.1 to 20 | O=C(O)Cc1cccc(CCCc2nc3cc(C(=O)N4CC[C@@H](c5ccccc5)C4)ccc3nc2-c2ccc(F)cc2)c1 [compound 274, (S)-2-(3-(3-(3-(4-fluorophenyl)-7-(3-phenylpyrrolidine-1-carbonyl)quinoxalin-2-yl)propyl)phenyl)acetic acid]
20.1 to 200 | CN(Cc1ccc(F)cc1)C(=O)c1ccc2nc(-c3ccc(F)cc3)c(CCCc3cccc(CC(=O)O)c3)nc2c1 [compound 275, 2-(3-(3-(7-((4-fluorobenzyl)(methyl)carbamoyl)-3-(4-fluorophenyl)quinoxalin-2-yl)propyl)phenyl)acetic acid]
2.1 to 20 | C[C@H](CCc1nc2cc(C(=O)N[C@@H]3CCCc4ccccc43)ccc2nc1-c1ccccc1)CC(=O)O [compound 276, (R)-3-methyl-5-(3-phenyl-7-(((R)-1,2,3,4-tetrahydronaphthalen-1-yl)carbamoyl)quinoxalin-2-yl)pentanoic acid]
2.1 to 20 | C[C@H](CCc1nc2cc(C(=O)N[C@H]3CCCc4ccccc43)ccc2nc1-c1ccccc1)CC(=O)O [compound 277, (R)-3-methyl-5-(3-phenyl-7-(((S)-1,2,3,4-tetrahydronaphthalen-1-yl)carbamoyl)quinoxalin-2-yl)pentanoic acid]
20.1 to 200 | C[C@H](CCc1nc2cc(C(=O)N[C@H](C)c3ccc(F)cc3)ccc2nc1-c1ccccc1)CC(=O)O [compound 278, (R)-5-(7-(((R)-1-(4-fluorophenyl)ethyl)carbamoyl)-3-phenylquinoxalin-2-yl)-3-methylpentanoic acid]
20.1 to 200 | C[C@H](CCc1nc2cc(C(=O)N[C@@H](C)c3ccc(F)cc3)ccc2nc1-c1ccccc1)CC(=O)O [compound 279, (R)-5-(7-(((S)-1-(4-fluorophenyl)ethyl)carbamoyl)-3-phenylquinoxalin-2-yl)-3-methylpentanoic acid]
701 to 2300 | C[C@H](CCc1nc2cc(C(=O)N3CCN(c4ccccc4)CC3)ccc2nc1-c1ccccc1)CC(=O)O [compound 280, (R)-3-methyl-5-(3-phenyl-7-(4-phenylpiperazine-1-carbonyl)quinoxalin-2-yl)pentanoic acid]
20.1 to 200 | C[C@H](CCc1nc2cc(C(=O)N3CC(c4cccc(F)c4)C3)ccc2nc1-c1ccccc1)CC(=O)O [compound 281, (R)-5-(7-(3-(3-fluorophenyl)azetidine-1-carbonyl)-3-phenylquinoxalin-2-yl)-3-methylpentanoic acid]
201 to 700 | C[C@H](CCc1nc2cc(C(=O)N3CC[C@@H](c4ccccc4)C3)ccc2nc1-c1ccccc1)CC(=O)O [compound 282, (R)-3-methyl-5-(3-phenyl-7-((S)-3-phenylpyrrolidine-1-carbonyl)quinoxalin-2-yl)pentannic acid]
201 to 700 | C[C@H](CCc1nc2cc(C(=O)N(C)Cc3ccc(F)cc3)ccc2nc1-c1ccccc1)CC(=O)O [compound 283, (R)-5-(7-((4-fluorobenzyl)(methyl)carbamoyl)-3-phenylquinoxalin-2-yl)-3-methylpentanoic acid]
2.1 to 20 | O=C(O)CCCCc1nc2cc(C(=O)NC3CC(=O)Nc4ccc(F)cc43)ccc2nc1-c1ccccc1 (stereo not drawn) [compound 284, 5-(7-((6-fluoro-2-oxo-1,2,3,4-tetrahydroquinolin-4-yl)carbamoyl)-3-phenylquinoxalin-2-yl)pentanoic acid]
2.1 to 20 | Cc1ccc([C@@]23C[C@@H]2CN(C(=O)c2ccc4nc(-c5ccc(Cl)cc5)c(CCCCC(=O)O)nc4c2)C3)cc1 [compound 285, 5-(3-(4-chlorophenyl)-7-((1R,5S)-1-(p-tolyl)-3 - azabicyclo[3.1.0]hexane-3-carbonyl)quinoxalin-2-yl)pentanoic acid]
20.1 to 200 | C[C@@H](CCc1nc2cc(C(=O)N[C@H]3CCCc4ccccc43)ccc2nc1-c1ccccc1)CC(=O)O [compound 286, (S)-3-methyl-5-(3-phenyl-7-(((S)-1,2,3,4-tetrahydronaphthalen-1-yl)carbamoyl)quinoxalin-2-yl)pentanoic acid]
20.1 to 200 | C[C@@H](CCc1nc2cc(C(=O)N[C@H](C)c3ccc(F)cc3)ccc2nc1-c1ccccc1)CC(=O)O [compound 287, (S)-5-(7-(((R)-1-(4-fluorophenyl)ethyl)carbamoyl)-3-phenylquinoxalin-2-yl)-3-methylpentanoic acid]
20.1 to 200 | C[C@@H](CCc1nc2cc(C(=O)N[C@@H](C)c3ccc(F)cc3)ccc2nc1-c1ccccc1)CC(=O)O [compound 288, (S)-5-(7-(((S)-1-(4-fluorophenyl)ethyl)carbamoyl)-3-3-phenylquinoxalin-2-yl)-3-methylpentanoic acid]
20.1 to 200 | C[C@@H](CCc1nc2cc(C(=O)N3CCN(c4ccccc4)CC3)ccc2nc1-c1ccccc1)CC(=O)O [compound 289, (S)-3-methyl-5-(3-phenyl-7-(4-phenylpiperazine-1-carbonyl)quinoxalin-2-yl)pentanoic acid]
2.1 to 20 | C[C@@H](CCc1nc2cc(C(=O)N3CC(c4cccc(F)c4)C3)ccc2nc1-c1ccccc1)CC(=O)O [compound 290, (S)-5-(7-(3-(3-fluorophenyl)azetidine-1-carbonyl)-3-phenylquinoxalin-2-yl)-3-methylpentanoic acid]
